# Laboratory results from article PMC8159961, “Exploring protein hotspots by optimized fragment pharmacophores” (Nature Communications, 2021).
# Where “and” joins values, the source holds several entries; their conditions need not be identical. Equal entries are not always repeated. Entries after “also recorded” stand apart in the source; their conditions may differ. Where two headings read alike, the source gives them in different places.
# Tests used:
# [1] = molecular target: T1, bovine factor Xa (Bos taurus, UniProt P00743); assay: Protease inhibitory assay, chromogenic substrate S-2222; format: biochemical; details: 1 = hit, 0 = no hit; screening at 200 µM
# T1 construct: bovine factor Xa, Chromogenix, 2 nkat/mL; purchased Chromogenix
# [2] = molecular target: T2, human 5-HT1A receptor (Homo sapiens, UniProt P08908); assay: GPCR radioligand binding assay, [3H]-8-OH-DPAT displacement, HEK293 membranes
# T2 construct: expressed in transfected cells
# T2 sequence (P08908 1-422): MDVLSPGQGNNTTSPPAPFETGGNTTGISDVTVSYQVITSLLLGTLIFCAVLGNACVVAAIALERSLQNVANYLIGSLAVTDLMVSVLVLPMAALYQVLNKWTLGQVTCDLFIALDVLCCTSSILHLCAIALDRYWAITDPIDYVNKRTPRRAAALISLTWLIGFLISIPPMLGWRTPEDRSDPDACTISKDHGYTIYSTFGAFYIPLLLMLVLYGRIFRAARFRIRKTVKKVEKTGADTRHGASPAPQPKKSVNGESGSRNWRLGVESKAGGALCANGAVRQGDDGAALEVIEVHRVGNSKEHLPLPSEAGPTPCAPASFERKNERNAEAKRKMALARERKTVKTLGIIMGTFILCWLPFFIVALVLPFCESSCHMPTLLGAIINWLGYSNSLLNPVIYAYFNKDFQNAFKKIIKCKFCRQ
# [3] = system: SARS-CoV-2; assay: microbe, parasite or virus in culture; format: cell-based; details: for antiviral activity in the cellular assay (in words): infected Vero E6 cells; for inhibition at 1000 µM: Severe acute respiratory syndrome coronavirus 2, Vero C1008, 1000 uM; for EC50: Vero E6 cells, 48 h post infection, read-out: EC50, blocking SARS-CoV-2 replication
# [4] = molecular target: T3, recombinant SETD2 (Homo sapiens, UniProt Q9BYW2); assay: SETD2 Chemiluminescence assay (H3K36 tri-methylation); format: biochemical; details: 1 = hit, 0 = no hit
# T3 construct: purchased BPS Bioscience 52060
# T3 sequence (Q9BYW2 1418-1714 limits assumed): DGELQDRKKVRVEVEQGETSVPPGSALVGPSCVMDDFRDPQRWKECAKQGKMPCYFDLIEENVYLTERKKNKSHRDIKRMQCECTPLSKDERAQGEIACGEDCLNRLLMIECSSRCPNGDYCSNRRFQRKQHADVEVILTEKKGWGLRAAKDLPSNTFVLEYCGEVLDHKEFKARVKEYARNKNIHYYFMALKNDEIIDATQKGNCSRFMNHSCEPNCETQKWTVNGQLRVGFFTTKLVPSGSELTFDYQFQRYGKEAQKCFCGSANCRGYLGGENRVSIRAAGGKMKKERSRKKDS
# [5] = molecular target: T4, SARS-CoV-2 NSP3 macrodomain (Severe acute respiratory syndrome coronavirus 2, UniProt P0DTD1); assay: NSP3 macrodomain HTRF assay, displacement of ADP-ribose-conjugated biotin peptide; format: binding; details: for activity in the NSP3 enzyme assay (in words): up to 5 mM concentration
# [6] = molecular target: T4, SARS-CoV-2 NSP3 macrodomain; assay: X-ray fragment screening (XChem, crystal soaking); format: binding
# [7] = molecular target: T5, human thrombin (Homo sapiens, UniProt P00734); assay: Protease inhibitory assay, chromogenic substrate S-2238; format: biochemical
# T5 construct: human thrombin; purchased Sigma-Aldrich
# [8] = molecular target: T6, human 5-HT6 receptor (Homo sapiens, UniProt P50406); assay: GPCR radioligand binding assay, [3H]-LSD displacement, HEK293 membranes
# T6 construct: expressed in transfected cells
# [9] = molecular target: T7, human 5-HT7b receptor (Homo sapiens, UniProt P34969); assay: GPCR radioligand binding assay, [3H]-5-CT displacement, HEK293 membranes
# T7 construct: expressed in transfected cells
# [10] = 10 µM, read-out: 5-HT1A % Inhibition by plate position
# [11] = 1 = hit, 0 = no hit, tested at 10 µM, hit = 50% or stronger inhibition
# [12] = 5-HT1A, average of exp_1 and exp_2, read-out: %inh 5-HT1A average
# [13] = 5-HT1A, average, values below 0 and above 100% were set as 0 and 100, read-out: %inh 5-HT1A corrected*
# [14] = 5-HT1A, replicate exp_1, read-out: %inh 5-HT1A exp_1
# [15] = 5-HT1A, replicate exp_2, read-out: %inh 5-HT1A exp_2
# [16] = 10 µM, read-out: 5-HT6 % Inhibition by plate position
# [17] = 5-HT6, average of exp_1 and exp_2, read-out: %inh 5-HT6 average
# [18] = 5-HT6, average, values below 0 and above 100% were set as 0 and 100, read-out: %inh 5-HT6 corrected*
# [19] = 5-HT6, replicate exp_1, read-out: %inh 5-HT6 exp_1
# [20] = 5-HT6, replicate exp_2, read-out: %inh 5-HT6 exp_2
# [21] = 10 µM, read-out: 5-HT7 % Inhibition by plate position
# [22] = 5-HT7, average of exp_1 and exp_2, read-out: %inh 5-HT7 average
# [23] = 5-HT7, average, values below 0 and above 100% were set as 0 and 100, read-out: %inh 5-HT7 corrected*
# [24] = 5-HT7, replicate exp_1, read-out: %inh 5-HT7 exp_1
# [25] = 5-HT7, replicate exp_2, read-out: %inh 5-HT7 exp_2
# [26] = replicates, read-out: Inhibition (%) of viral copy numbers
# T7 sequence (P34969 1-432): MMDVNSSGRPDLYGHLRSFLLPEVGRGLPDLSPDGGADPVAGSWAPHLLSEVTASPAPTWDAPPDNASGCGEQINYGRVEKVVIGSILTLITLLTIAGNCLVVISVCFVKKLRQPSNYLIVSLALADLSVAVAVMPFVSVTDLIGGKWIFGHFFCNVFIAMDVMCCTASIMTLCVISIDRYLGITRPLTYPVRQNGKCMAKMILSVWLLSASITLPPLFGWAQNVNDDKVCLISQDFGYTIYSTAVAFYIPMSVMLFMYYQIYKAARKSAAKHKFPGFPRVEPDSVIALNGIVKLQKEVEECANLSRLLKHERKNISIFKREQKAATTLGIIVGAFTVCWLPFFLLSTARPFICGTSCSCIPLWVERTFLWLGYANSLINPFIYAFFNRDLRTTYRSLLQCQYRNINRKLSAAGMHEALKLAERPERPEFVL
# T6 sequence (P50406 whole entry): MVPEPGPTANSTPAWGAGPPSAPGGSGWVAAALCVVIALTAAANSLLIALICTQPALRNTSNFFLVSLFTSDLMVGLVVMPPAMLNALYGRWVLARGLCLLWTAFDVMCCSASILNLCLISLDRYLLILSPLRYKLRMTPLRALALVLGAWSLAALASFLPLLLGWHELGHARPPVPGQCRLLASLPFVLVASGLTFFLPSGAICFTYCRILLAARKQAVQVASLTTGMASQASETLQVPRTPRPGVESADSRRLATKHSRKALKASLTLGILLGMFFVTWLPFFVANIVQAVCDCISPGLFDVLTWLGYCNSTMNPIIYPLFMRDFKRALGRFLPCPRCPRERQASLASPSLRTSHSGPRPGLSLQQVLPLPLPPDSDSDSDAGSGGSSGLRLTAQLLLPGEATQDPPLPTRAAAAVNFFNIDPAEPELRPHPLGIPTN
# T1 sequence (P00743 234-492 limits assumed): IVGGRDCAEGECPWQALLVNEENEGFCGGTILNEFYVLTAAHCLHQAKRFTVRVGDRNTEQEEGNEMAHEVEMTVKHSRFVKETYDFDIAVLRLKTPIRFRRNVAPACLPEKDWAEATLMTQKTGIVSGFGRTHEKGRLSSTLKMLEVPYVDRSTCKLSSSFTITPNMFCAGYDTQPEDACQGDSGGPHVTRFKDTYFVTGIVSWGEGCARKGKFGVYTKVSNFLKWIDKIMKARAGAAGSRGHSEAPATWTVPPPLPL
# T1 sequence (P00743 41-180 partner limits assumed): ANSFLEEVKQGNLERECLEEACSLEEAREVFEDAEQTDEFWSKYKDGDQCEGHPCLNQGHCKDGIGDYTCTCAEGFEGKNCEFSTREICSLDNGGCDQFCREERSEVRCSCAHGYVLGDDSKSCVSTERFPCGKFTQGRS
smiles,measurement,setting,value
c1cnc2ncccc2c1 [SX003],"experimental hit status, Factor Xa",[1],0
same,inhibition at 10 µM,[2]; [10],22%
same,"experimental hit status, 5-HT1",[2]; [11],0
same,inhibition at 10 µM,[2]; [12],22%
same,inhibition at 10 µM,[2]; [13],22%
same,inhibition at 10 µM,[2]; [14],24%
same,inhibition at 10 µM,[2]; [15],21%
same,antiviral activity in the cellular assay (in words),[3],inactive in cells
same,"experimental hit status, SETD2",[4],0
same,activity in the NSP3 enzyme assay (in words),[5]; HTRF assay,no activity
same,"X-ray screen result, binding site",[6],identified in the active site
same,"experimental hit status, Thrombin","[7]; 1 = hit, 0 = no hit, screening at 200 µM",0
same,inhibition at 10 µM,[8]; [16],48%
same,"experimental hit status, 5-HT6",[8]; [11],0
same,inhibition at 10 µM,[8]; [17],48%
same,inhibition at 10 µM,[8]; [18],48%
same,inhibition at 10 µM,[8]; [19],55%
same,inhibition at 10 µM,[8]; [20],41%
same,inhibition at 10 µM,[9]; [21],34%
same,"experimental hit status, 5-HT7",[9]; [11],0
same,inhibition at 10 µM,[9]; [22],34%
same,inhibition at 10 µM,[9]; [23],34%
same,inhibition at 10 µM,[9]; [24],32%
same,inhibition at 10 µM,[9]; [25],36%
NC(=O)N1CCC(C(=O)O)CC1 [SX048],inhibition at 10 µM,[2]; [10],0.751%
same,inhibition at 10 µM,[2]; [12],0.751%
same,inhibition at 10 µM,[2]; [13],0.751%
same,inhibition at 10 µM,[2]; [14],1.5%
same,inhibition at 10 µM,[2]; [15],0%
same,viral copy numbers normalized to the control (untreated infected cells),"[3]; 10 uM, replicates",1.6898 and 2.197 and 1.352
same,Inhibition (%) of viral copy numbers,"[3]; 100 uM, replicates",8.992%
same,viral copy numbers normalized to the control (untreated infected cells),"[3]; 100 uM, replicates",1.075 and 1.992 and 0.9101
same,Inhibition (%) of viral copy numbers,"[3]; 250 uM, replicates",15.88% and 50.18% and 14.44%
same,viral copy numbers normalized to the control (untreated infected cells),"[3]; 250 uM, replicates",0.8412 and 0.4982 and 0.8556
same,Inhibition (%) of viral copy numbers,"[3]; 500 uM, replicates",81.12% and 43.68% and 14.44%
same,viral copy numbers normalized to the control (untreated infected cells),"[3]; 500 uM, replicates",0.1888 and 0.5632 and 0.8556
same,Inhibition (%) of viral copy numbers,"[3]; 750 uM, replicates",51.99% and 82.49% and 35.02%
same,viral copy numbers normalized to the control (untreated infected cells),"[3]; 750 uM, replicates",0.4801 and 0.1751 and 0.6498
same,Inhibition (%) of viral copy numbers,"[3]; 1000 uM, replicates",41.84% and 41.07%
same,viral copy numbers normalized to the control (untreated infected cells),"[3]; 1000 uM, replicates",0.5067 and 0.5816 and 0.5893
same,inhibition at 10 µM,"[3]; Severe acute respiratory syndrome coronavirus 2, Vero C1008, 10 uM, replicates, read-out: Inhibition (%) of viral copy numbers",0%
same,inhibition at 1000 µM,[3]; [26],49.3%
same,antiviral activity in the cellular assay (in words),[3],high micromolar range; also recorded: Significant antiviral activities
same,% SARS-CoV-2 macrodomain inhibition,"[5]; 98 µM, replicates",4.2%
same,inhibition at 98 µM,"[5]; 98 µM, replicates",5.1%
same,% SARS-CoV-2 macrodomain inhibition,"[5]; 195 µM, replicates",3.7% and 10.3%
same,% SARS-CoV-2 macrodomain inhibition,"[5]; 391 µM, replicates",5.0% and 0.65%
same,% SARS-CoV-2 macrodomain inhibition,"[5]; 781 µM, replicates",4.2% and 0.6%
same,% SARS-CoV-2 macrodomain inhibition,"[5]; 1563 µM, replicates",5.8%
same,inhibition at 1563 µM,"[5]; 1563 µM, replicates",6.6%
same,% SARS-CoV-2 macrodomain inhibition,"[5]; 3125 µM, replicates",6.5% and 15.4%
same,% SARS-CoV-2 macrodomain inhibition,"[5]; 6250 µM, replicates",80.4%
same,inhibition at 6250 µM,"[5]; 6250 µM, replicates",84.7%
same,% SARS-CoV-2 macrodomain inhibition,"[5]; 12500 µM, replicates",102.4%
same,inhibition at 12500 µM,"[5]; 12500 µM, replicates",102%
same,NSP3 inhibition (in words),"[5]; HTRF assay, at 5 mM concentration",significant
same,IC50,"[5]; IC50, SARS-CoV-2 macrodomain inhibition",5540 µM
same,IC50,"[5]; NSP3 IC50, HTRF assay",5500 µM
same,"X-ray screen result, binding site",[6],identified in the active site
same,Ki,"[7]; plate layout, label = plate position, Cheng-Prusoff, Km 2.6 µM, read-out: Thrombin Ki",301 µM
same,inhibition at 10 µM,[8]; [16],47%
same,inhibition at 10 µM,[8]; [17],47%
same,inhibition at 10 µM,[8]; [18],47%
same,inhibition at 10 µM,[8]; [19],56%
same,inhibition at 10 µM,[8]; [20],38%
same,inhibition at 10 µM,[9]; [21],0%
same,inhibition at 10 µM,[9]; [22],-6.41%
same,inhibition at 10 µM,[9]; [23],0%
same,inhibition at 10 µM,[9]; [24],-8%
same,inhibition at 10 µM,[9]; [25],-4.44%
CC1C(=O)NC(=O)N1c1ccc(Cl)cc1 (stereo not shown) [SX051],Inhibition (%) of viral copy numbers,"[3]; 10 uM, replicates",0% and 9.716% and 1.026%
same,viral copy numbers normalized to the control (untreated infected cells),"[3]; 10 uM, replicates",2.076 and 0.9028 and 0.9897
same,Inhibition (%) of viral copy numbers,"[3]; 100 uM, replicates",32.89% and 37.84%
same,viral copy numbers normalized to the control (untreated infected cells),"[3]; 100 uM, replicates",0.7145 and 0.6711 and 0.6216
same,Inhibition (%) of viral copy numbers,"[3]; 250 uM, replicates",83.75% and 96.5% and 61.73%
same,viral copy numbers normalized to the control (untreated infected cells),"[3]; 250 uM, replicates",0.1625 and 0.03502 and 0.3827
same,Inhibition (%) of viral copy numbers,"[3]; 500 uM, replicates",86.97% and 88.23%
same,viral copy numbers normalized to the control (untreated infected cells),"[3]; 500 uM, replicates",0.2487 and 0.1303 and 0.1177
same,Inhibition (%) of viral copy numbers,"[3]; 750 uM, replicates",96.17% and 94.15%
same,viral copy numbers normalized to the control (untreated infected cells),"[3]; 750 uM, replicates",0.05523 and 0.03827 and 0.05848
same,Inhibition (%) of viral copy numbers,"[3]; 1000 uM, replicates",100% and 99.81%
same,viral copy numbers normalized to the control (untreated infected cells),"[3]; 1000 uM, replicates",0.003839 and 0 and 0.001919
same,inhibition at 100 µM,"[3]; Severe acute respiratory syndrome coronavirus 2, Vero C1008, 100 uM, replicates, read-out: Inhibition (%) of viral copy numbers",28.5%
same,inhibition at 500 µM,"[3]; Severe acute respiratory syndrome coronavirus 2, Vero C1008, 500 uM, replicates, read-out: Inhibition (%) of viral copy numbers",75.1%
same,inhibition at 750 µM,"[3]; Severe acute respiratory syndrome coronavirus 2, Vero C1008, 750 uM, replicates, read-out: Inhibition (%) of viral copy numbers",94.5%
same,inhibition at 1000 µM,[3]; [26],99.6%
same,EC50,"[3]; Severe acute respiratory syndrome coronavirus 2, Vero C1008, 48 h",136 µM
same,EC50,[3],136 µM
same,antiviral activity in the cellular assay (in words),[3],high micromolar range; also recorded: Significant antiviral activities
same,activity in the NSP3 enzyme assay (in words),[5]; HTRF assay,no activity
same,"X-ray screen result, binding site",[6],identified in the active site
Clc1ccc2nnnn2n1 [SX054],antiviral activity in the cellular assay (in words),[3],inactive in cells
same,activity in the NSP3 enzyme assay (in words),[5]; HTRF assay,no activity
same,"X-ray screen result, binding site",[6],identified in the active site
